Calls of active or inactive are those of the source.

Experiment [1] concerns the target T1, Hexokinase-1 (Homo sapiens, UniProt P19367).
T1 sequence (P19367 whole entry): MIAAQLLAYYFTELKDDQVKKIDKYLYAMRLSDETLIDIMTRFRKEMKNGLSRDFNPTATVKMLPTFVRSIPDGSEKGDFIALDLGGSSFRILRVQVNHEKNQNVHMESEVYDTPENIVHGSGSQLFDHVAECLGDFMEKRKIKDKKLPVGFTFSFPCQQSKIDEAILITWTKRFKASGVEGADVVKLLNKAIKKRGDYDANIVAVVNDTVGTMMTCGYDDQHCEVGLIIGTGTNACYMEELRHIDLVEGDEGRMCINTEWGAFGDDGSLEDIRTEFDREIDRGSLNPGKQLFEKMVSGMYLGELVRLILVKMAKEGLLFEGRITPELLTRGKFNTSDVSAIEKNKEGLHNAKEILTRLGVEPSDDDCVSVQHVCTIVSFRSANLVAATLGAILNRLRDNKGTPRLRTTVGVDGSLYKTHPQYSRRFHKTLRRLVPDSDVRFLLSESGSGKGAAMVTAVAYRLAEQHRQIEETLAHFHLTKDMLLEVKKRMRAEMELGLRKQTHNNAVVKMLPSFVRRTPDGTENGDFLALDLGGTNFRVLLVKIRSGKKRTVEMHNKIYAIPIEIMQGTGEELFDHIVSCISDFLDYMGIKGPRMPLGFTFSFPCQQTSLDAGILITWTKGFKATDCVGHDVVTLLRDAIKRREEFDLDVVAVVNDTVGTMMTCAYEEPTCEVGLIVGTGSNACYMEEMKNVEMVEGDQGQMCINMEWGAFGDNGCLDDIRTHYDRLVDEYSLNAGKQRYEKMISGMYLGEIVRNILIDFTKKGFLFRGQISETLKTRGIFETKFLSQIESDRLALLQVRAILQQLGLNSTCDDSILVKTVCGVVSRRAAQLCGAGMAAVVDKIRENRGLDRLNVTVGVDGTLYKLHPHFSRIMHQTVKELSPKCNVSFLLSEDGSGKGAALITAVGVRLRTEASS
Put plainly: SAR analysis of small molecule inhibitors of hexokinase domain containing I (HKDC1) in the hexokinase 1 selectivity assay. [Related pubchem assays (depositor defined):AID493160, AID493190]. The class given is functional.

For experiment [2], the target named is T2, Hexokinase HKDC1 (Homo sapiens, UniProt Q2TB90).
T2 sequence (Q2TB90 whole entry): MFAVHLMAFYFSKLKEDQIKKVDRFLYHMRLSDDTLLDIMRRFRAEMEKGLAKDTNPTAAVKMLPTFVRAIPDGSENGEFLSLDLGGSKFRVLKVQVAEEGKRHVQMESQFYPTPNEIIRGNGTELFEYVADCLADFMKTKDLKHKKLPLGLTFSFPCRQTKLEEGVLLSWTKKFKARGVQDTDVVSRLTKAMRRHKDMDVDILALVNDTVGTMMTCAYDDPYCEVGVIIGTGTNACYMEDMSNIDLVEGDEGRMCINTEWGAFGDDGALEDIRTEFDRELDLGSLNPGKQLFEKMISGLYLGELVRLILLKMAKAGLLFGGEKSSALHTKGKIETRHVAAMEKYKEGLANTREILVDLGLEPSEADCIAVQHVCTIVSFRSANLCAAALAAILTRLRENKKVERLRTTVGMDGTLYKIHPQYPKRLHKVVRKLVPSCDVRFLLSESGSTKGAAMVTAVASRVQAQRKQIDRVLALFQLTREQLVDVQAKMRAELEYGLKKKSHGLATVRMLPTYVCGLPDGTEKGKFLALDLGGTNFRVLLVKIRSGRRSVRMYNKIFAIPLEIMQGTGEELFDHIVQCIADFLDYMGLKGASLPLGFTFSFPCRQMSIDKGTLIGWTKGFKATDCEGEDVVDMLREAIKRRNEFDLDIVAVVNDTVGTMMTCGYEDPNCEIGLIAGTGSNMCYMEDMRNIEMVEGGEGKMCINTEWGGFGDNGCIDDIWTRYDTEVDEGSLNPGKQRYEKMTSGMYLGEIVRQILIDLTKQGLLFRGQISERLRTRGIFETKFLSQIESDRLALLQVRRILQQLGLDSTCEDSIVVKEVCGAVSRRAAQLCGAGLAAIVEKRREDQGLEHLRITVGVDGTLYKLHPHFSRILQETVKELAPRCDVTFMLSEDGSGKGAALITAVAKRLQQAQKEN
In words: SAR analysis of small molecule inhibitors of hexokinase domain containing I (HKDC1). [Related pubchem assays (depositor defined):AID493160, AID493190]. The format is functional.

The target in experiment [3] is DNA topoisomerase (Yersinia pestis, UniProt A0A2S9PM60). Put plainly: Yersinia topoisomerase I cleavage product accumulation – biochemical, cherry-pick, dose response (AID 588525).
Experiment [4] can be described thus: potency of ADAM10 substrate cleavage blockers – biochemical, QFRET, dose response (AID 743254).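 Also: ADAM10 enzyme with the DM2 quenched FRET peptide as substrate; EDANS fluorescence gain as the protease cuts the substrate; inhibitor potency against ADAM10 proteolytic activity.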
Experiment [5] has as its target Disintegrin and metalloproteinase domain-containing protein 17 (Homo sapiens, UniProt P78536). In words: inhibition of ADAM17 substrate cleavage – biochemical, quenched FRET substrate, counter-screen for ADAM10 exosite inhibitor project, dose response (AID 743253).
Experiment [6] concerns Jurkat. In words: SAR Analysis of small molecule inhibitors of […] specific antigen receptor-induced NF-kB activation in a Jurkat cell line using a luminescence assay - Set 3. [Related pubchem assays (depositor defined):AID435022, AID435025, AID465]. The format is functional, cell-based. As to conditions: Homo sapiens.
Experiment [7] has as its system HEK293. Put plainly: SAR Analysis of small molecule inhibitors of B-cell specific antigen receptor-induced NF-kB activation in a HEK-293T cell line using a luminescence assay - Set 2. [Related pubchem assays (depositor defined):AID435022, AID435025, AID489021]. The format is functional, cell-based. Particulars: Homo sapiens.
For experiment [8], the system named is HEK293. In words: HEK293T cell viability loss, resazurin readout – resazurin fluorescence, cytotoxicity control for NF-kB activator project, SAR follow-up (AID 493251). The format is functional, cell-based. Particulars: Homo sapiens.
Experiment [9] has as its target T3, Sentrin-specific protease 8 (Homo sapiens, UniProt Q96LD8).
T3 sequence (Q96LD8 whole entry): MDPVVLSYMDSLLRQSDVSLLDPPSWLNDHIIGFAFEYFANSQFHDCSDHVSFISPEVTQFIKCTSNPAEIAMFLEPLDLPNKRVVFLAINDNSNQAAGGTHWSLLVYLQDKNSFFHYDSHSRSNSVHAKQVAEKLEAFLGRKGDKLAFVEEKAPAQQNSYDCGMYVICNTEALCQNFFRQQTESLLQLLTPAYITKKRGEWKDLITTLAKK
In words: inhibition of human SENP8 cleavage activity – biochemical, luminescence, SAR follow-up (AID 504501). The class given is functional.

For experiment [10], the target named is T4, Caspase-3 (Homo sapiens, UniProt P42574).
T4 sequence (P42574 whole entry): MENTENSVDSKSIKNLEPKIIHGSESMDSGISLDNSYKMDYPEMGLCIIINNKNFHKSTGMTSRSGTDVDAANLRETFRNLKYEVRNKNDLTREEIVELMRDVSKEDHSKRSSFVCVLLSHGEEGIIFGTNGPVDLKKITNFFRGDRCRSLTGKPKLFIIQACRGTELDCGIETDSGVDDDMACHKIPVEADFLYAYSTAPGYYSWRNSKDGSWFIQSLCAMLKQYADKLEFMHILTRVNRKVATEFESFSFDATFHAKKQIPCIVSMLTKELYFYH
Put plainly: inhibition of recombinant caspase-3 activity – biochemical, luminescence, set 2, selectivity assay for SENP protease inhibitor project, SAR follow-up (AID 588599). The class given is functional.

For experiment [11], the target named is T3, Sentrin-specific protease 8. In words: inhibition of sentrin protease 8 – biochemical, luminescence, set 2, SAR follow-up (AID 588601). The class given is functional.
Experiment [12] deals with T4, Caspase-3. In words: SAR Analysis of small molecule inhibitors of Sentrin-specific proteases (SENPs) using a Caspase-3 Selectivity assay. [Related pubchem assays (depositor defined):AID2540, AID2599, AID434973, AID489001]. The format is functional.
Experiment [13] concerns the target T5, Sentrin-specific protease 7 (Homo sapiens, UniProt Q9BQF6).
T5 sequence (Q9BQF6 whole entry): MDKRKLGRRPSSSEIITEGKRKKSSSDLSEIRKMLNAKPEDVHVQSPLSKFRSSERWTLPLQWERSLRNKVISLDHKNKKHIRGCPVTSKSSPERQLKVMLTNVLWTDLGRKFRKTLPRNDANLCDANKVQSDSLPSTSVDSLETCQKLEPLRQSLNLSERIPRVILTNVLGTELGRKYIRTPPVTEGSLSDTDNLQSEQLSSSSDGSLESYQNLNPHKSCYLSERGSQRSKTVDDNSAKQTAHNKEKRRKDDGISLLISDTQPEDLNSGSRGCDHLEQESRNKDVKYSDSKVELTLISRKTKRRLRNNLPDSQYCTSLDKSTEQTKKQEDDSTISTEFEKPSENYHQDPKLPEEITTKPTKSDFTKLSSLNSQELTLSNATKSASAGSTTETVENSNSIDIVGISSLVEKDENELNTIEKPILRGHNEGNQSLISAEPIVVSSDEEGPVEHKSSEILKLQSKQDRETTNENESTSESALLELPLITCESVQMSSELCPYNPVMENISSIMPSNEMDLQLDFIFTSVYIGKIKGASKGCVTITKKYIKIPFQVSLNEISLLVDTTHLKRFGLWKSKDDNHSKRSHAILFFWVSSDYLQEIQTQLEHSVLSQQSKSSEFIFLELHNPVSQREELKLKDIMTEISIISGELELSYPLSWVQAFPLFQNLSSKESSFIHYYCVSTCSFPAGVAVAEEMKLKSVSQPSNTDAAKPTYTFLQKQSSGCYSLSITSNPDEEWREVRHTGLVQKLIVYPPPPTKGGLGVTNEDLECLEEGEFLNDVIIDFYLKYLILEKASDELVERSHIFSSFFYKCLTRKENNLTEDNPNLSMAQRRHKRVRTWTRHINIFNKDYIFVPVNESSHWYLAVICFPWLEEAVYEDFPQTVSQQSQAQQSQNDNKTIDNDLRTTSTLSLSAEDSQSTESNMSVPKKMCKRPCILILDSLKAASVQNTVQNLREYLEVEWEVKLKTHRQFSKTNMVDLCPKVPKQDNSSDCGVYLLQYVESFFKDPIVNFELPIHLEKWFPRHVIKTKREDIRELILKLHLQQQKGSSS
Put plainly: inhibition of human SENP7 cleavage activity – biochemical, luminescence, set 2, SAR follow-up (AID 588600). The format is functional.

For experiment [14], the target named is T6, Sentrin-specific protease 6 (Homo sapiens, UniProt Q9GZR1).
T6 sequence (Q9GZR1 whole entry): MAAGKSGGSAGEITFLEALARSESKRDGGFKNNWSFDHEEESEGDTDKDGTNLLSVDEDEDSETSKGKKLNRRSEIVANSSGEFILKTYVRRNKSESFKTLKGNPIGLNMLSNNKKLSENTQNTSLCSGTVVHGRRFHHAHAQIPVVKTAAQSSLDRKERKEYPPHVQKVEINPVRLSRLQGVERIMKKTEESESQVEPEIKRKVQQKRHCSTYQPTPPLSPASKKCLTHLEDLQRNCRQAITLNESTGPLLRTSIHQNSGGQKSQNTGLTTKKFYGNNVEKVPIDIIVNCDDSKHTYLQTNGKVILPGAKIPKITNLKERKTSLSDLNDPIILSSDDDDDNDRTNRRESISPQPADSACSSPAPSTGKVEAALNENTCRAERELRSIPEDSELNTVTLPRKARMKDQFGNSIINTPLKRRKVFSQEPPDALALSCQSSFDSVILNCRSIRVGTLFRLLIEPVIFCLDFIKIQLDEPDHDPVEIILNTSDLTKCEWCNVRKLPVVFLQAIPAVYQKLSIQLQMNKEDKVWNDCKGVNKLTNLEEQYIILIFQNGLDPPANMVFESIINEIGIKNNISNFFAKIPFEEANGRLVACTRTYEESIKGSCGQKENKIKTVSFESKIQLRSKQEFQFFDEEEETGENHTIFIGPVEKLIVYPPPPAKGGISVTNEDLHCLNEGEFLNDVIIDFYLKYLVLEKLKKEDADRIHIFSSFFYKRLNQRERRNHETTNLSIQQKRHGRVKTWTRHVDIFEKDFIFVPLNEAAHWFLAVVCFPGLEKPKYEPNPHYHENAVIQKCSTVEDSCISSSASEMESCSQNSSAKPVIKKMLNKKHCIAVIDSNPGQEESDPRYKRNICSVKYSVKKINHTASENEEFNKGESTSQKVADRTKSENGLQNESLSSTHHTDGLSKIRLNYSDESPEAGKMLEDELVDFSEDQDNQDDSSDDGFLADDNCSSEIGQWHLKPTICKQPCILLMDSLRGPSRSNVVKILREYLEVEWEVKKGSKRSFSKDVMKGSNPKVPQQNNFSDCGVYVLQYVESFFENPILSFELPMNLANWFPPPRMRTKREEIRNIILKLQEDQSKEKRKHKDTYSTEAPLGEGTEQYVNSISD
Put plainly: SAR Analysis of small molecule inhibitors of Sentrin-specific protease 6 (SENP6) using a Luminescent assay. [Related pubchem assays (depositor defined):AID2582, AID2599]. The format is functional.

For experiment [15], the target named is T6, Sentrin-specific protease 6. In words: inhibition of human SENP6 catalytic domain – biochemical, luminescence, set 2, SAR follow-up (AID 588598). The class given is functional.
In experiment [16] the target is T5, Sentrin-specific protease 7. In words: inhibition of human SENP7 cleavage activity – biochemical, luminescence, SAR follow-up (AID 504497). The class given is functional.

Disintegrin and metalloproteinase domain-containing protein 17, sequence (P78536 whole entry, the tested form may be a part): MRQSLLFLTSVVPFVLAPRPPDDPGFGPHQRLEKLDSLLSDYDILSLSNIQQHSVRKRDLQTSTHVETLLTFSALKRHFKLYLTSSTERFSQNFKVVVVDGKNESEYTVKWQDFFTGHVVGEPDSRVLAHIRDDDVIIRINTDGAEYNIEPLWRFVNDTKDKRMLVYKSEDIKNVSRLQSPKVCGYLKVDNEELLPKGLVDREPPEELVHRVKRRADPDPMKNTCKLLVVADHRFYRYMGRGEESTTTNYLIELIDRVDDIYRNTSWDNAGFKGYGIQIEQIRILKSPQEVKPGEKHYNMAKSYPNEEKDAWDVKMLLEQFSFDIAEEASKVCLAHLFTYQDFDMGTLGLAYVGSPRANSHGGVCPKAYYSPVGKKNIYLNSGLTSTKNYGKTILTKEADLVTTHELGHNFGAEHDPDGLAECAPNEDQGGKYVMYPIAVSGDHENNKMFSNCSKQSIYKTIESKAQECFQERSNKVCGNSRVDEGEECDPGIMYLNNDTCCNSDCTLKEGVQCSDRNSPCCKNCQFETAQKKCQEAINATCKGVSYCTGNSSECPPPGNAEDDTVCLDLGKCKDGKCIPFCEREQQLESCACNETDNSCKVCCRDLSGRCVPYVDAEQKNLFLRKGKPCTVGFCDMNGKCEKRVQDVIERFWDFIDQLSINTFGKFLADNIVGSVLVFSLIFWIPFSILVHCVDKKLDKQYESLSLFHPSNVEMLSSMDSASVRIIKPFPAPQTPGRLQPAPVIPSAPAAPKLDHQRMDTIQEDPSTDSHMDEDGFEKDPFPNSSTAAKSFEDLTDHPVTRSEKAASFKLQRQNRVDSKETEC
DNA topoisomerase, sequence (A0A2S9PM60 whole entry): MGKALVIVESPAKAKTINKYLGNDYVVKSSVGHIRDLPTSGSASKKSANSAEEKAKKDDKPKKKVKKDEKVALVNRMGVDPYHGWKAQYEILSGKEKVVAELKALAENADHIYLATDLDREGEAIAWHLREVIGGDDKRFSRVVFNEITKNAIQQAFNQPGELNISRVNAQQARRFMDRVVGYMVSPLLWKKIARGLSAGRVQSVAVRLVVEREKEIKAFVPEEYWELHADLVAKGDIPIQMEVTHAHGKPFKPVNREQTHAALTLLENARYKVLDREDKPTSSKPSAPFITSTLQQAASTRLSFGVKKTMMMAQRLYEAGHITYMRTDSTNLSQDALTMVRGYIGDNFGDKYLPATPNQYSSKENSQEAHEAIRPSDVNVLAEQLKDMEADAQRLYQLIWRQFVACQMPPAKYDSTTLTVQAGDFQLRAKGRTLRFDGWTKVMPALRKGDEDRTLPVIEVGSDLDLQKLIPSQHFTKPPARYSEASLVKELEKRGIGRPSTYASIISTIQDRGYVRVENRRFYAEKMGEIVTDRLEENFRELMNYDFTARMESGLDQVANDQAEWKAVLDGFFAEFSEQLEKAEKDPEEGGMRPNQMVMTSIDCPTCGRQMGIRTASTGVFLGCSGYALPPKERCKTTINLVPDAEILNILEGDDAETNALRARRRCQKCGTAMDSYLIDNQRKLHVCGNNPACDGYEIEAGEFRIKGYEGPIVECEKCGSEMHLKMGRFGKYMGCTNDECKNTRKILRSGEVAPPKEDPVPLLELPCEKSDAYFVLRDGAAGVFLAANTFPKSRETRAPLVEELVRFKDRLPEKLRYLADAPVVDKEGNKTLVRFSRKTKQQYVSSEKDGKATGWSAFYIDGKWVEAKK

As to `O=c1c2ccccc2nc(/C=C/c2ccccn2)n1-c1ccccc1`, the IC50 in experiment [1] and in experiment [2] was > 80 µM (inactive) in each case.

As for `Cc1cc(C)c2c(=O)n3c(nc2c1)C(Cc1ccc(O)cc1)NC(=O)c1cc2ccccc2cc1-3` (stereo unspecified), the AC50 in [3] was 9.07 µM (active). The IC50 in experiment [4] and in experiment [5] was > 69.5 µM (inactive) throughout.

As to `COc1cccc(NC(=O)CCc2nc(-c3ccc(C(C)(C)C)cc3)no2)c1`, the IC50 is 0.242 µM (active) in experiment [6], 0.24 µM (active) in experiment [7] and > 80 µM (inactive) in [8].

As for `CCCCc1ccc2nc(NC(=O)c3nccs3)sc2c1`, the IC50 in experiment [9] is 5.4 µM (active); in [10] it was 4.83 µM (active); in experiment [11] it was 4.9 µM (active); in experiment [12], 5.4 µM (active); in experiment [13], 6.32 µM (active); in [14], 4.4 µM (active). Further, the IC50 is 7.43 µM (active) in experiment [15] and 3.3 µM (active) in experiment [16].

The values above are taken from ChEMBL document CHEMBL1201862, “PubChem BioAssay data set” (2004).
